In PubChem BioAssay (NCI):
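Each compound was tested at five concentrations against cells in 96-well plates for 48 hours. TGI marks complete inhibition of growth.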

Assays:
Experiment in all cases: DTP human tumour cell line panel, 48 h
CAKI-1 renal = tested on: CAKI-1 renal
DU-145 prostate = tested on: DU-145 prostate
HOP-92 NSCLC = tested on: HOP-92 NSCLC
HT29 colon = tested on: HT29 colon
IGROV1 ovarian = tested on: IGROV1 ovarian
LOX IMVI melanoma = tested on: LOX IMVI melanoma
MCF7 breast = tested on: MCF7 breast
SK-MEL-2 melanoma = tested on: SK-MEL-2 melanoma
SK-MEL-5 melanoma = tested on: SK-MEL-5 melanoma
TK-10 renal = tested on: TK-10 renal

Structure (SMILES)	TGI (CAKI-1 renal) [µM]	TGI (DU-145 prostate) [µM]	TGI (HOP-92 NSCLC) [µM]	TGI (HT29 colon) [µM]	TGI (IGROV1 ovarian) [µM]	TGI (LOX IMVI melanoma) [µM]	TGI (MCF7 breast) [µM]	TGI (SK-MEL-2 melanoma) [µM]	TGI (SK-MEL-5 melanoma) [µM]	TGI (TK-10 renal) [µM]
COc1ccc(C2CCc3c(cnc4nc(N)nc(N)c34)C2)cc1 (configuration not stated)	> 100	> 100	12.3	> 100	> 100	> 100	45.1	> 100	> 100	36
CCOC(=O)CCN1C(=O)c2c(NC(=O)C(=O)O)cccc2S1(=O)=O	> 100	> 100	> 100	> 100	> 100	> 100	> 100	> 100		> 100
COc1ccc2c(-c3csc(-c4c[nH]c5ccccc45)n3)c[nH]c2c1	32.8	> 44.8	26.4	7.32	> 58.2	> 31.9	> 100	> 86.2	30.6	23.5
O=C1CCc2c(sc3ncnc(Nc4cccc(Br)c4)c23)C1	12.5	17.3	9.21	27	12.6	12.9	22.3	23.8	3.67	14.5
CCOC(=O)N1c2c(c3ccccc3n2C(=O)OCC)C(=O)C(OC)N1C(=O)OCC (configuration not stated)	93.9	> 100	> 100	85.5	> 100	38.8	> 100	36.4	60.7	> 100
Nc1nc(Cl)cc(NCC2CC(O)(CO)C2)n1 (configuration not stated)	> 100	> 100	> 100	> 100	> 100	> 100	> 100	> 100	> 100	> 100
O=c1[nH]c(=O)c2c([nH]1)[nH]c1ccccc12	> 100	> 100	> 100	> 100	> 100	> 100	> 100	> 100	> 100	> 100
O=C(CSCC(=O)N/N=C\c1cccc(Br)c1)N/N=C\c1cccc(Br)c1	37.1	48.3	47	66.7	47	23.5	> 100	91.3	42.3	24.8
Clc1ccc(C2=NNC(c3cccc(Cl)c3)C2)cc1 (configuration not stated)	> 100	> 100	38.2	> 100	5.07	33.7	> 100	5.55	28.1	79.9
c1ccc2c(c1)[C@@H]1O[C@@H]1[C@@]13O[C@@]21[C@H]1O[C@H]1c1ccccc13	23.2	29.2	23.4	51.9	29.3	27.7	> 100	37.5	26.7	62.2
O=C(OCC(OC(=O)c1ccccc1)C1CC(C(O)C2CCCCC2)C(=O)O1)c1ccccc1 (configuration not stated)	> 100	> 100	> 100		> 100	> 100	96.7	> 100	32.2	> 100
S=C1NNC(=S)NN1	0.475	> 1	> 1	> 1	> 1	0.328	> 1	> 1	> 1	> 1
CN1C(=O)[C@](C)(Cc2ccc(F)cc2)N(C(=O)OC(C)(C)C)[C@@H]1C(C)(C)C	> 100	> 100	> 100	45.6	> 100	53	59.3	> 100	37.6	> 100
O=C(O)CCC(NC(=O)/C(=C/c1ccccc1)NC(=O)c1ccccc1)C(=O)O (configuration not stated)	> 100	> 100	> 100	> 100	> 100	> 100	> 100	> 100	> 100	> 100
Fc1sc2c(c1F)C1CCC2C1 (configuration not stated)	> 100	> 100	> 100	> 100	> 100	> 100	> 100	> 100	> 100	> 100
Cc1cccc2c1C(=O)/C(=C/c1ccccc1C(=O)O)C2	> 100	> 100	> 100	> 100	> 100	> 100	> 100	> 100	> 100	> 100
[O-][n+]1cc(SCc2ccccc2)ncc1SCc1ccccc1	> 10	> 10	> 10	> 10	> 10	> 10	> 10	> 10	> 10	> 10
CC1=NNC(N)=N/C1=C\C(Sc1ccc(Cl)cc1)c1ccc(Cl)cc1Cl (configuration not stated)	> 67.1	61.7	> 50.5	14.2	21.9	> 49.4	16.4	38	40.1	45.9
COc1ccc(OC)c([N+](=O)[O-])c1-c1nc2sc(C)cn2c1/C=N/N=C(N)N	84.1	> 100	47.8	50.1	33	> 100	> 100	60.2	49.9	43.3
CO/C=C(/C(=O)OC)c1ccccc1[C@H]1C[C@@H]1c1ccccc1	52.6	> 100	92.4	56.5	58.1		> 100	34.8	20.8	> 100
Cc1nc2cccc(F)c2c(=O)n1-c1nnc(C2CC2)s1	> 10	> 10	> 10	> 10	> 10	> 10	> 10	> 10	> 10	> 10
